The target of experiment [1] is T1, BRD4 bromo domain 1 [BRD4(1)] (Homo sapiens, UniProt O60885).
T1 construct: N-terminally His6-tagged BRD4(1) (amino acids 67-152); made in house; host or cells: E. coli
Nature of the experiment: BRD4/acetylated peptide H4 binding assay (TR-FRET), BRD4 bromo domain 1. The following applies: inhibition of BRD4(1)/Ac-H4 peptide interaction. The source says:
(§1) Protein-Protein Interaction Assay: BRD4/Acetylated Peptide H4 Binding Assay
To assess the BRD4(1) binding strength of the substances described in this application, the ability thereof to inhibit the interaction between BRD4(1) and acetylated histone H4 in a dose-dependent manner was quantified.
(§2) For this purpose, a time-resolved fluorescence resonance energy transfer (TR-FRET) assay was used, which measures the binding between N-terminally His6-tagged BRD4(1) (amino acids 67-152) and a synthetic acetylated histone H4 (Ac-H4) peptide with sequence GRGK(Ac)GGK(Ac)GLGK(Ac)GGAK(Ac)RHGSGSK-biotin. The recombinant BRD4(1) protein produced in-house according to Filippakopoulos et al., Nature, 2010, 468:1119-1123 and Cell, 2012, 149:214-231, was expressed in E. coli and purified by means of (Ni-NTA) affinity and (Sephadex G-75) size exclusion chromatography. The Ac-H4 peptide can be purchased, for example, from Biosyntan (Berlin, Germany).
(§3) In the assay, typically 11 different concentrations of each substance (0.1 nM, 0.33 nM, 1.1 nM, 3.8 nM, 13 nM, 44 nM, 0.15 μM, 0.51 μM, 1.7 μM, 5.9 μM and 20 μM) were analysed as duplicates on the same microtitre plate. For this purpose, 100-fold concentrated solutions in DMSO were prepared by serial dilutions (1:3.4) of a 2 mM stock solution into a clear, 384-well microtitre plate (Greiner Bio-One, Frickenhausen, Germany). From this, 50 nl were transferred into a black test plate (Greiner Bio-One, Frickenhausen, Germany). The test was started by the addition of 2 μl of a 2.5-fold concentrated BRD4(1) solution (final concentration typically 10 nM in the 5 μl of reaction volume) in aqueous assay buffer [50 mM HEPES pH 7.5, 50 mM sodium chloride (NaCl), 0.25 mM CHAPS and 0.05% serum albumin (BSA)] to the substances in the test plate. This was followed by a 10-minute incubation step at 22° C. for the pre-equilibration of putative complexes between BRD4(1) and the substances.
(§4) The mixture was then incubated in the dark at 22° C. for one hour and then at 4° C. for at least 3 hours and for no longer than overnight. The formation of BRD4(1)/Ac-H4 complexes was determined by the measurement of the resonance energy transfer from the streptavidin-Eu cryptate to the anti-6His-XL665 antibody present in the reaction. For this purpose, the fluorescence emission was measured at 620 nm and 665 nm after excitation at 330-350 nm in a TR-FRET measuring instrument, for example a Rubystar or Pherastar (both from BMG Lab Technologies, Offenburg, Germany) or a Viewlux (Perkin-Elmer). The ratio of the emissions at 665 nm and at 622 nm was taken as an indicator of the amount of BRD4(1)/Ac-H4 complexes formed.
The data (ratios) obtained were normalized, with 0% inhibition corresponding to the mean from the measurements for a set of controls (typically 32 data points) in which all the reagents were present. In these, in place of test substances, 50 nl of DMSO (100%) were used. Inhibition of 100% corresponded to the mean from the measurements for a set of controls (typically 32 data points) in which all the reagents except BRD4(1) were present. The IC50 was determined by regression analysis based on a 4-parameter equation (minimum, maximum, IC50, Hill; Y=max+(min−max)/(1+(X/IC50)Hill)).

Experiment [2] deals with T2, BRD4 bromo domain 2 [BRD4(2)] (Homo sapiens, UniProt O60885).
T2 construct: N-terminally His6-tagged BRD4(2) (amino acids 357-445); made in house; host or cells: E. coli
Nature of the experiment: BRD4/acetylated peptide H4 binding assay (TR-FRET), BRD4 bromo domain 2. The following applies: inhibition of BRD4(2)/Ac-H4 peptide interaction.
Text: as §1
To assess the BRD4(2) binding strength of the substances described in this application, the ability thereof to inhibit the interaction between BRD4(2) and acetylated histone H4 in a dose-dependent manner was quantified.
as §2, with “BRD4(2)” for “BRD4(1)”, “357-445)” for “67-152)”, “SGRGK(Ac)GGK(Ac)GLGK(Ac)GGAK(Ac)RHRKVLRDNGSGSK-biotin.” for “GRGK(Ac)GGK(Ac)GLGK(Ac)GGAK(Ac)RHGSGSK-biotin.”
as §3, with “concentrated BRD4(2)” for “concentrated BRD4(1)”, “typically 100” for “typically 10”, “chloride (NaCl); 50 mM potassium fluoride (KF);” for “chloride (NaCl),”, “between BRD4(2)” for “between BRD4(1)”, “substances. Subsequently, 3 μl of a 1.67-fold concentrated solution (in assay buffer) consisting of Ac-H4 peptide (83.5 nM) and TR-FRET detection reagents [83.5 nM anti-6His-XL665 (Cisbio Bioassays, Codolet, France) and 12.52 nM streptavidin-Eu), (Perkin Elmer, #W1024)] in assay buffer were added.” for “substances.”
as §4, with “BRD4(2)/Ac-H4” for “BRD4(1)/Ac-H4”, “chelate” for “cryptate”
The data (ratios) obtained were normalized, with 0% inhibition corresponding to the mean from the measurements for a set of controls (typically 32 data points) in which all the reagents were present. In these, in place of test substances, 50 nl of DMSO (100%) were used. Inhibition of 100% corresponded to the mean from the measurements for a set of controls (typically 32 data points) in which all the reagents except BRD4(2) were present. The IC50 was determined by regression analysis based on a 4-parameter equation (minimum, maximum, IC50, Hill; Y=max+(min−max)/(1+(X/IC50)Hill)).
Background: TR-FRET usually uses a lanthanide donor and a delayed reading to cut background.

The values below come from patent US20160176867A1, “MODIFIED BET-PROTEIN-INHIBITING DIHYDROQUINOXALINONES AND DIHYDROPYRIDOPYRAZINONES” (BAYER PHARMA AKTIENGESELLSCHAFT, priority 2013, published 2016).

The IC50 is the concentration at which inhibition is half-maximal.

As to `Cc1cccc(N2c3nc(Nc4cccc(S(=O)(=O)NC5CCN(C)CC5)c4)ccc3N(C)C(=O)C2C)c1` (stereo not shown) [Example 65, 3-{[1,3-dimethyl-4-(3-methylphenyl)-2-oxo-1,2,3,4-tetrahydropyrido-[2,3-b]pyrazin-6-yl]amino}-N-(1-methylpiperidin-4-yl)benzenesulphonamide], the IC50 in experiment [1] was found to be 386 nM; in experiment [2] it was 589 nM.
For `C[C@@H]1C(=O)N(C)c2ccc(Nc3cccc(S(=O)(=O)N4CCN(CC(F)(F)F)CC4)c3)nc2N1C1CCN(C(=O)OC(C)(C)C)CC1` [Example 66, tert-butyl 4-[(3R)-1,3-dimethyl-2-oxo-6-[(3-{[4-(2,2,2-trifIuoroethyl)-piperazin-1-yl]sulphonyl}-phenl)amino]-2,3-dihydropyrido[2,3-b]pyrazin-4(1H)-yl]piperidine-1-carboxylate] the same measures were 1110 nM and 308 nM.
For `CC1C(=O)N(C)c2ccc(Nc3cccc(S(=O)(=O)N4CCN(C)CC4)c3)nc2N1c1ccc(N2CCN(C(=O)OC(C)(C)C)CC2)cc1` (stereo not shown) [Example 67, tert-butyl 4-{4-[1,3-dimethyl-6-({3-[(4-methylpiperazin-1-yl)sulphonyl]phenl}-amino)-2-oxo-2,3-dihydropyrido[2,3-b]pyrazin-4(1H)-yl]phenyl}piperazine-1-carboxylate] the same measures were 4380 nM and 5190 nM.
For `C[C@@H]1C(=O)N(C)c2ccc(Nc3cccc(S(=O)(=O)N(C)C)c3)cc2N1C1CCN(C(=O)OC(C)(C)C)CC1` [Example 68, tert-butyl 4-[(2R)-7-{[3-(dimethylsulphamoyl)-phenyl]amino}-2,4-dimethyl-3-oxo-3,4-dihydroquinoxalin-1(2H)-yl]piperidine-1-carboxylate] the same measures were 433 nM and 76 nM.
Take `C[C@@H]1C(=O)N(C)c2ccc(Nc3cccc(S(=O)(=O)N(C)C)c3)cc2N1Cc1ccccc1` [Example 69, 3-{[(3R)-4-benzyl-1,3-dimethyl-2-oxo-1,2,3,4-tetrahydroquinoxalin-6-yl]amino}-N,N-dimethyl-benzenesulphonamide]: the IC50 in experiment [1] turned out to be 496 nM; in experiment [2], 63 nM.
Taken in the same sequence, the figures for `C[C@@H]1C(=O)N(C)c2ccc(N(C)c3cccc(S(=O)(=O)N(C)C)c3)cc2N1C1CCN(C(=O)OC(C)(C)C)CC1` [Example 70, tert-butyl 4-[(2R)-7-{[3-(dimethylsulphamoyl)-phenyl](methyl)amino}-2,4-dimethyl-3-oxo-3,4-dihydroquinoxalin-1(2H)-yl]piperidine-1-carboxylate] were 749 nM and 384 nM.
For `C[C@@H]1C(=O)N(C)c2ccc(Nc3cccc(S(=O)(=O)N4CCN(C)CC4)c3)cc2N1C1CCOCC1` [Example 71, (3R)-1,3-dimethyl-6-({3-[(4-methylpiperazin-1-yl)sulphonyl]phenl}-amino)-4-(tetrahydro-2H-pyran-4-yl)-3,4-dihydroquinoxalin-2(1H)-one] the same measures were 232 nM and 315 nM.
As for `CC(C)N1CCN(C(=O)c2cccc(Nc3ccc4c(n3)N(Cc3ccccc3)[C@H](C)C(=O)N4C)c2)CC1` [Example 76, (3R)-4-benzyl-6-({3-[(4-isopropylpiperazin-1-yl)carbonyl]phenyl}-amino)-1,3-dimethyl-3,4-dihydropyrido[2,3-b]pyrazin-2(1H)-one], the IC50 in experiment [1] is 143 nM; in experiment [2] it was 108 nM.
Taken in the same sequence, the figures for `C[C@@H]1C(=O)N(C)c2ccc(Nc3cccc(C(=O)N4CCN(C)CC4)c3)nc2N1C1CCN(C(=O)OC(C)(C)C)CC1` [Example 78, tert-butyl 4-[(3R)-1,3-dimethyl-6-({3-[(4-methylpiperazin-1-yl)carbonyl]phenyl}-amino)-2-oxo-2,3-dihydropyrido[2,3-b]pyrazin-4(1H)-yl]piperidine-1-carboxylate] were 151 nM and 157 nM.
For `C[C@@H]1C(=O)N(C)c2ccc(Nc3cccc(C(=O)NC4CCC(NC5CCN(C)CC5)CC4)c3)nc2N1C1CCOCC1` (stereo partly drawn) [Example 80, 3-{[(3R)-1,3-dimethyl-2-oxo-4-(tetrahydro-2H-pyran-4-yl)-1,2,3,4-tetrahydropyrido[2,3-b]pyrazin-6-yl]amino}-N-{4-[(1-methylpiperidin-4-yl)amino]cyclohexyl} benzamide] the same measures were 196 nM and 247 nM.
For `COc1ccc(Nc2ccc3c(n2)N(C2CCOCC2)[C@H](C)C(=O)N3C)cc1C(=O)NC1CCN(C)CC1` [Example 81, 5-{[(3R)-1,3-dimethyl-2-oxo-4-(tetrahydro-2H-pyran-4-yl)-1,2,3,4-tetrahydropyrido[2,3-b]pyrazin-6-yl]amino}-2-methoxy-N-(1-methylpiperidin-4-yl)benzamide] the same measures were 210 nM and 227 nM.
